# Where two headings read alike, the source gives them in different places.
# Assays:
# [1] = Urinary (renal) excretion in rats after a 30-min infusion of Kang-Ai injection; format: in vivo, Sprague–Dawley rats
# Method: (§1) For urine sampling, the rats were housed singly in metabolic cages. And then, the urine samples were collected at 0–4, 4–8 and 8–12 h after starting infusion and were weighed. Likewise, bile samples were also collected at 0–3, 3–6, 6–9 and 9–12 h after starting infusion and were weighed. The urine and bile collection tubes were all frozen at − 80 °C.
# (§2) Pharmacokinetic parameters were estimated by non-compartmental analysis using WinNonlin 6.3 software (Pharsight, NC, US). Data are presented as the mean ± SD (n = 3). The area under the concentration–time curve up to the last measured point in time (AUC0-t) was calculated using the trapezoidal rule. The total plasma clearance (CLtot, p) was calculated by dividing the compound dose by the AUC0-∞, and the distribution volume at steady state (VSS) was estimated by multiplying the CLtot, p by the mean residence time (MRT). The renal excretory clearance (CLR) and hepatobiliary (CLB) was determined by dividing the cumulative amount excreted into urine (Cum.Ae-U) and bile (Cum.Ae-B) by the plasma AUC0-∞, respectively. The fractions of dose excreted into urine (fe-U) and the fractions of dose excreted into bile (fe-B) were established using the relationship Cum.Ae-U/Dose and Cum.Ae-B/Dose, respectively. Mean differences between treatment and control groups were analyzed by two-tailed unpaired Student’s t test by Graphpad Prism V5 software (SanDiego, CA). The level of significance was set at p < 0.05 (∗), p < 0.01 (∗∗) or p < 0.001 (∗∗∗).
# [2] = Protein binding assay (equilibrium dialysis); format: in vitro ADME, rat
# Method: Binding of circulating alkaloids and saponins to rat plasma was measured by equilibrium dialysis using Spectra/Por 2 dialysis membranes (molecular weight cutoff, 12–14 kDa; Rancho Dominguez, CA, USA) as described. After equilibrating for 24 h at 55 rpm and 37 °C, the dialysate and the plasma were sampled for analysis. […] The concentrations of tested matrine, oxysophocarpine and oxymatrine were 2 μmol/L, while those of astragaloside IV, III, and ginsenosides Rh1, Rg2, Rg1, Rf, Re, Rd, Rc, Rb1, Rb2, notoginsenosides R1, R2, were 4 μmol/L. The unbound fraction (fu-plasma) in rat plasma was calculated as follow: fu-plasma = Cd/Cp × 100%, where the Cd and Cp values were the concentrations of each analyte in the dialysate sample and in the post-dialysis plasma sample, respectively.
# [3] = Stability tests of analytes in rat plasma QC samples; format: in vitro ADME; settings: rat plasma
# Method: […] The dilution integrity was investigated by analyzing six replicate samples with each analyte, and each analyte were diluted 10-fold with blank rat matrix. Furthermore, the diluted samples were analyzed using freshly prepared calibration curve to calculate RE and RSD, which should be no more than ± 15% as criterion.
# [4] = Plasma pharmacokinetics in rats after a 30-min intravenous infusion of Kang-Ai injection; format: in vivo, Sprague–Dawley rats
# Method: Specific pathogen free (SPF) grade male Sprague–Dawley rats (250 ± 20) g were provided by the Experimental Animal Center of Zhengzhou University (Zhengzhou, China). These rats were kept in a designated animal room at constant temperature (22 ± 2) °C and humidity (50 ± 20) % with 12 h of light/dark per day and free access to water and food. All protocols of animal experiments were approved in accordance with the Regulations of Experimental Animal Administration issued by the Ethics Review Committee for Animal Experimentation of Jinan University (Ethical Review NO. 20190301010). Prior to the experiments, the rats were fasted for 12 h but with free access to water. After study use, the rats were euthanized with CO2 gas.
# The rats in this study all received a single 30-min intravenous infusion of Kang-Ai injection via the tail veins using TYD01-02 infusion pumps (Lead Fluid, Baoding, China). The dose was derived from the label daily dose of Kang-Ai injection (60 mL/person, once daily) according to dose normalization by body surface area. For plasma pharmacokinetic studies, the rats were randomly received a single intravenous 30 min-bolus dose at 6 mL/kg. Blood samples (100 μL) were collected from the rats’ external jugular veins into heparinized polypropylene tubes at 5, 15, 30, 45 min, and 1, 1.5, 2, 3, 4, 6, 8, 12 h. After gently shaking for 10 s, the blood samples were centrifuged at 13000 g for 10 min to yield plasma samples, which were kept frozen at − 80 °C until analysis.
# as §2
# [5] = Biliary (hepatobiliary) excretion in rats after a 30-min infusion of Kang-Ai injection; format: in vivo, Sprague–Dawley rats; settings: rat, in vivo, iv
# Method: as §1, §2
# [6] = rat urine 0–12 h, Kang-Ai injection 6 mL/kg iv
# [7] = rat plasma, 30-min iv infusion of Kang-Ai injection 6 mL/kg
SMILES,"fe-U,0–12h (fraction of dose excreted into urine) [1, 6]","At -80 °C for 48 h, Mean±SD ([3]; nominal conc. 20 nM)","At -80 °C for 48 h, RE ([3]; nominal conc. 20 nM)","Extracted samples at 8 °C for 18 h, Mean±SD ([3]; nominal conc. 20 nM)","Extracted samples at 8 °C for 18 h, RE ([3]; nominal conc. 20 nM)","Short-term stability at room temperature for 6 h, Mean±SD ([3]; nominal conc. 20 nM)","Short-term stability at room temperature for 6 h, RE ([3]; nominal conc. 20 nM)","Three freeze-thaw cycles (-80 °C ↔ 23 °C), Mean±SD ([3]; nominal conc. 20 nM)","Three freeze-thaw cycles (-80 °C ↔ 23 °C), RE ([3]; nominal conc. 20 nM)","At -80 °C for 48 h, Mean±SD ([3]; nominal conc. 100 nM)","At -80 °C for 48 h, RE ([3]; nominal conc. 100 nM)","Extracted samples at 8 °C for 18 h, Mean±SD ([3]; nominal conc. 100 nM)","Extracted samples at 8 °C for 18 h, RE ([3]; nominal conc. 100 nM)","Short-term stability at room temperature for 6 h, Mean±SD ([3]; nominal conc. 100 nM)","Short-term stability at room temperature for 6 h, RE ([3]; nominal conc. 100 nM)","Three freeze-thaw cycles (-80 °C ↔ 23 °C), Mean±SD ([3]; nominal conc. 100 nM)","Three freeze-thaw cycles (-80 °C ↔ 23 °C), RE ([3]; nominal conc. 100 nM)","At -80 °C for 48 h, Mean±SD ([3]; nominal conc. 400 nM)","At -80 °C for 48 h, RE ([3]; nominal conc. 400 nM)","Extracted samples at 8 °C for 18 h, Mean±SD ([3]; nominal conc. 400 nM)",also measured
"CC(C)(O)[C@@H]1CC[C@](C)([C@H]2[C@@H](O)C[C@@]3(C)[C@@H]4C[C@H](O)[C@H]5C(C)(C)[C@@H](O[C@@H]6OC[C@@H](O)[C@H](O)[C@H]6O[C@@H]6O[C@H](CO)[C@@H](O)[C@H](O)[C@H]6O)CC[C@@]56C[C@@]46CC[C@]23C)O1 [Compound B3, Astragaloside III]",2.60 ± 0.69%,19.85 ± 0.45 nM,-3.31%,17.98 ± 1.29 nM,-14.29%,19.47 ± 1.70 nM,-12.31%,19.24 ± 0.59 nM,-6.46%,89.68 ± 4.10 nM,-13.24%,99.17 ± 12.67 nM,13.54%,91.15 ± 3.72 nM,-13.15%,103.49 ± 8.05 nM,9.29%,431.79 ± 15.31 nM,12.29%,400.78 ± 32.83 nM,"bound in rat plasma ([2]; rat plasma, equilibrium dialysis): ~90%; fu-plasma (unbound fraction) ([2]; rat plasma, equilibrium dialysis 24 h, 37 °C, 2 μmol/L alkaloids, 4 μmol/L saponins): 11.04 ± 0.86%; Extracted samples at 8 °C for 18 h, RE ([3]; nominal conc. 400 nM): -8.93%; Short-term stability at room temperature for 6 h, Mean±SD ([3]; nominal conc. 400 nM): 348.69 ± 3.47 nM; Short-term stability at room temperature for 6 h, RE ([3]; nominal conc. 400 nM): -13.71%; Three freeze-thaw cycles (-80 °C ↔ 23 °C), Mean±SD ([3]; nominal conc. 400 nM): 387.44 ± 17.00 nM; Three freeze-thaw cycles (-80 °C ↔ 23 °C), RE ([3]; nominal conc. 400 nM): -6.84%; AUC0–12h [4, 7]: 0.03429 ± 0.00522 µM·h; t1/2 [4, 7]: 19.8 ± 7.8 min; Cmax ([4]; rat plasma, 30-min iv infusion of Kang-Ai injection 6 mL/kg, read-out: Cmax): 54.8 ± 10.2 nM; VSS (Vd) ([4]; rat, Kang-Ai injection 6 mL/kg iv): < 0.1 L/kg"
"CC(C)=CCC[C@](C)(O[C@@H]1O[C@H](CO[C@@H]2OC[C@H](O)[C@H](O)[C@H]2O)[C@@H](O)[C@H](O)[C@H]1O)[C@H]1CC[C@]2(C)[C@@H]1[C@H](O)C[C@@H]1[C@@]3(C)CC[C@H](O[C@@H]4O[C@H](CO)[C@@H](O)[C@H](O)[C@H]4O[C@@H]4O[C@H](CO)[C@@H](O)[C@H](O)[C@H]4O)C(C)(C)[C@@H]3CC[C@]12C [Compound D4, Ginsenoside Rb2]",27.80 ± 4.47%,20.39 ± 1.54 nM,-6.96%,19.58 ± 2.21 nM,-12.48%,20.28 ± 1.99 nM,10.37%,20.89 ± 1.50 nM,11.32%,95.34 ± 8.02 nM,-12.47%,96.04 ± 12.11 nM,-10.99%,88.84 ± 2.61 nM,-13.48%,104.61 ± 9.20 nM,10.55%,423.10 ± 46.59 nM,12.64%,434.41 ± 11.65 nM,"CL renal ([1]; male, Sprague-Dawley, urine and plasma, rat, Kang-Ai injection 6 mL/kg iv, read-out: CLR (renal excretory clearance) (converted)): 0.0357 mL/min; fraction unbound at 24 h ([2]; rat plasma, equilibrium dialysis 24 h, 37 °C, 2 μmol/L alkaloids, 4 μmol/L saponins, read-out: fu-plasma (unbound fraction)): 0.0067 ± 0.0005; Extracted samples at 8 °C for 18 h, RE ([3]; nominal conc. 400 nM): 11.01%; Short-term stability at room temperature for 6 h, Mean±SD ([3]; nominal conc. 400 nM): 352.24 ± 2.93 nM; Short-term stability at room temperature for 6 h, RE ([3]; nominal conc. 400 nM): -12.50%; Three freeze-thaw cycles (-80 °C ↔ 23 °C), Mean±SD ([3]; nominal conc. 400 nM): 440.44 ± 2.62 nM; Three freeze-thaw cycles (-80 °C ↔ 23 °C), RE ([3]; nominal conc. 400 nM): 13.72%; clearance ([4]; male, Sprague-Dawley, plasma, rat, 30-min iv infusion of Kang-Ai injection 6 mL/kg, Table 1 unit, read-out: CLtot, p (converted)): 0.13 mL/min; Vd ([4]; male, Sprague-Dawley, plasma, rat, 30-min iv infusion of Kang-Ai injection 6 mL/kg, Table 1 unit, read-out: VSS): 0.0396 ± 0.0073 L; Cmax ([4]; male, Sprague-Dawley, rat plasma, 30-min iv infusion of Kang-Ai injection 6 mL/kg, read-out: Cmax): 301 ± 34.2 nM; half-life ([4]; male, Sprague-Dawley, rat plasma, 30-min iv infusion of Kang-Ai injection 6 mL/kg, read-out: t1/2 (converted)): 247 ± 49.8 min"
"CC(C)=CCC[C@](C)(O)[C@H]1CC[C@]2(C)[C@@H]1[C@H](O)C[C@@H]1[C@@]3(C)CC[C@H](O)C(C)(C)[C@@H]3[C@@H](O[C@@H]3O[C@H](CO)[C@@H](O)[C@H](O)[C@H]3O[C@@H]3OC[C@@H](O)[C@H](O)[C@H]3O)C[C@]12C [Compound C3, Notoginsenoside R2]",–,–,–,–,–,–,–,–,–,–,–,–,–,–,–,–,–,–,–,–,"CLB (hepatobiliary clearance) [5]: 59.94 ± 6.71 mL/h; fe-B,0–12h (fraction of dose excreted into bile) [5]: 23.55 ± 1.97%; CLR (renal excretory clearance) ([1]; rat, in vivo, iv): 25.62 ± 3.48 mL/h; fe-U,0–12h (fraction of dose excreted into urine) ([1]; rat, in vivo, iv): 10.27 ± 2.49%; fu-plasma (unbound fraction) ([2]; rat, plasma): 35.24 ± 2.85%; AUC0–12h ([4]; rat, in vivo, iv): 0.08557 ± 0.01054 µM·h; CLtot, p ([4]; rat, in vivo, iv): 255.80 ± 34.97 mL/h; Cmax ([4]; rat, in vivo, iv): 128 ± 13.3 nM; VSS ([4]; rat, in vivo, iv): 99.30 ± 20.42 mL; t1/2 ([4]; rat, in vivo, iv): 17.4 ± 7.2 min"
"O=C1CCC[C@@H]2[C@H]3CCCN4CCC[C@@](O)(CN12)[C@@H]34 [Compound A9, Sophoranol]",–,–,–,–,–,–,–,–,–,–,–,–,–,–,–,–,–,–,–,–,"CLB (hepatobiliary clearance) [5]: 0.68 ± 0.16 mL/h; fe-B,0–12h (fraction of dose excreted into bile) [5]: 1.27 ± 0.20%; CLR (renal excretory clearance) ([1]; rat, in vivo, iv): 34.24 ± 17.17 mL/h; fe-U,0–12h (fraction of dose excreted into urine) ([1]; rat, in vivo, iv): 59.77 ± 8.80%; CLtot, p ([4]; rat, in vivo, iv): 56.05 ± 22.70 mL/h; Cmax ([4]; rat, in vivo, iv): 397 ± 49.7 nM; VSS ([4]; rat, in vivo, iv): 53.50 ± 7.71 mL; t1/2 ([4]; rat, in vivo, iv): 49.2 ± 22.2 min"

# Source: article PMC7339578, “Multiple circulating alkaloids and saponins from intravenous Kang-Ai injection inhibit human cytochrome P450 and UDP-glucuronosyltransferase isozymes: potential drug–drug interactions” (Chinese Medicine, 2020)
